Reference: ChEMBL document CHEMBL5113482, “Discovery of fused benzimidazole-imidazole autophagic flux inhibitors for treatment of triple-negative breast cancer” (Eur J Med Chem, 2022)
Activity calls are given as the source filed them. No cut-off for these calls is given here.

Key:
MDA-MB-468 = assay: Antiproliferative activity against human MDA-MB-468 cells assessed as reduction in Ki67 expression measured after 48 hrs by immunofluorescence analysis; format: functional, cell-based
MDA-MB-231 = assay: Inhibition of autophagic flux in human MDA-MB-231 cells assessed as increase in nuclear p62 expression measured after 48 hrs by Western blot analysis; format: functional, cell-based; details: dose 5-20 µM, DDE = dose-dependent effect

## O=C(NC1CCCCC1)c1[nH]cnc1-c1nc2ccccc2[nH]1
MDA-MB-468
  Activity: Active
MDA-MB-231
  inhibition: Dde
